# Like-named read-outs stand apart in the source and are kept apart here.
# Biological target: T1, F508del (Homo sapiens, UniProt P13569, DEL508-508)
# T1 construct: expressed in transfected cells
# Test: Protocol 2: FRET membrane potential optical assay (VIPR), identification of correction compounds
# Type: cell-based
# Procedure, shortened: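 NIH3T3 mouse fibroblasts stably expressing F508del were treated with test compound for 16 hrs at 37° C. in serum-free medium; 27° C. incubation served as positive control. F508del was activated with 10 μM forskolin plus 20 μM genistein in Cl^−-free medium, and Cl^− efflux-driven depolarization was read by DiSBAC2(3)/CC2-DMPE FRET.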
# [1] = F508del CFTR modulator activity, compounds of Table 1, read-out: EC30
# [2] = Table 3, compounds of Table 1 as modulators of CFTR activity, protocol not stated
# T1 sequence (P13569 with tags, fused parts or gaps DEL508-508): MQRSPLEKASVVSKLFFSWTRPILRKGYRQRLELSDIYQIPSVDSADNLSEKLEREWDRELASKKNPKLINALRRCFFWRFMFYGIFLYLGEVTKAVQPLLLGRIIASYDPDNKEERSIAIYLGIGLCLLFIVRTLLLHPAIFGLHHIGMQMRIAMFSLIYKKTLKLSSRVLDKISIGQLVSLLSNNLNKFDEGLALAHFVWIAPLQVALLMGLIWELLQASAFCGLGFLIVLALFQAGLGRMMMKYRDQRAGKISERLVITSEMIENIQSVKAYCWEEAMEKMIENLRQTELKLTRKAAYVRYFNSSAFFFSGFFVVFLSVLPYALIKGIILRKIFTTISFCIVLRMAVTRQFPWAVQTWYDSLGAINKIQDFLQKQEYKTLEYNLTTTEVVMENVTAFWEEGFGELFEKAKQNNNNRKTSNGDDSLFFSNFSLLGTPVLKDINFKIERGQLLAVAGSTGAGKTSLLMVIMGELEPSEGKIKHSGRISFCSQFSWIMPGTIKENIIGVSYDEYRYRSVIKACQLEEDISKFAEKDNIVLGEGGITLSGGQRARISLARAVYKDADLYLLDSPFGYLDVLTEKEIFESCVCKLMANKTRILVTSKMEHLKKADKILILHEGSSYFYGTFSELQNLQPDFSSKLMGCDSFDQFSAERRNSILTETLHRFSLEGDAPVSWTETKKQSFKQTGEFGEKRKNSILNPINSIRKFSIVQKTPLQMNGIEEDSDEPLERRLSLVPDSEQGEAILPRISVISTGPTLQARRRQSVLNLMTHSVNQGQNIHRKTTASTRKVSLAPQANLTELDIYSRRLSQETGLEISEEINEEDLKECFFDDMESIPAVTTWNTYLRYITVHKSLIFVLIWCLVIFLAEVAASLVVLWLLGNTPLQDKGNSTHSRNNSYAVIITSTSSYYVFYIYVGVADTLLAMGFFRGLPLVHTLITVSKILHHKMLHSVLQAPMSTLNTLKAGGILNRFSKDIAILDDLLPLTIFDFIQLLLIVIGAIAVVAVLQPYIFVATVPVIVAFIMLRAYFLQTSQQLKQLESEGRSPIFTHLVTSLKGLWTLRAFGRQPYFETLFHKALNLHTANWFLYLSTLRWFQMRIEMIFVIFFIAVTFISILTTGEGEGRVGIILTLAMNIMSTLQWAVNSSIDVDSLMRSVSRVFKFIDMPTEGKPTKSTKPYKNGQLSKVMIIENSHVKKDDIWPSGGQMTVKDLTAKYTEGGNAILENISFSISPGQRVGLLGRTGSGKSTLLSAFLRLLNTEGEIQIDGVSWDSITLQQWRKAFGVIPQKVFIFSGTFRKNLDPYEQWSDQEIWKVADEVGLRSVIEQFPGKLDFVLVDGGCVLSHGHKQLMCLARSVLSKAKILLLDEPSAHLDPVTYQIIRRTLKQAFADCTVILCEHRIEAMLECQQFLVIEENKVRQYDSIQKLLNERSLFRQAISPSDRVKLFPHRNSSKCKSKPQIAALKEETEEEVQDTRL
SMILES,EC30 [1] [nM],EC30 [2]
"Cc1cc(C)c(Oc2nc(C(C)(C)C)ccc2C(=O)NS(=O)(=O)c2cccc(N)n2)c(C#N)c1 [Compound 767, N-[(6-amino-2-pyridyl)sulfonyl]-6-tert-butyl-2-(2-cyano-4,6-dimethyl-phenoxy)pyridine-3-carboxamide]",–,+++ (“+++” means <3 uM)
"Cc1cccc(C)c1Cn1nc(C(C)(C)C)cc1C(=O)NS(=O)(=O)c1ccccc1 [Compound 257, N-(benzenesulfonyl)-5-tert-butyl-2-[(2,6-dimethylphenyl)methyl]pyrazole-3-carboxamide]",–,+++ (“+++” means <3 uM)
"Cc1ccc(OCc2ccccc2)cc1-c1cnc(N2CC(C)CC2(C)C)c(C(=O)NS(=O)(=O)c2cccc(N)n2)c1 (stereo not shown) [Compound 2588, N-[(6-amino-2-pyridyl)sulfonyl]-5-(5-benzyloxy-2-methyl-phenyl)-2-(2,2,4-trimethylpyrrolidin-1-yl)pyridine-3-carboxamide]",< 3000,–
CC1CN(c2ncccc2C(=O)NS(=O)(=O)c2cccc(NCCc3ccncc3)n2)C(C)(C)C1 (stereo not shown) [Compound 2735],3000 to 10000,–
"COc1ccc(F)cc1-c1cc(C(=O)NS(=O)(=O)c2ccccc2)n(Cc2c(C)cccc2C)n1 [Compound 27, N-(benzenesulfonyl)-2-[(2,6-dimethylphenyl)methyl]-5-(5-fluoro-2-methoxy-phenyl)pyrazole-3-carboxamide]",–,+++ (“+++” means <3 uM)
"Cc1cc(C)c(Oc2nc(C(C)(C)C)ccc2C(=O)NS(=O)(=O)c2ccccn2)c(C)c1 [Compound 222, 6-tert-butyl-N-(2-pyridylsulfonyl)-2-(2,4,6-trimethylphenoxy)pyridine-3-carboxamide]",–,+++ (“+++” means <3 uM)
"Cc1cc(C)c(Cc2ccc(C(C)(C)C)nc2C(=O)NS(=O)(=O)c2ccccc2)c(C)c1 [Compound 22, N-(benzenesulfonyl)-6-tert-butyl-3-[(2,4,6-trimethylphenyl)methyl]pyridine-2-carboxamide]",–,+++ (“+++” means <3 uM)
"CCOC(=O)c1ccc(Nc2cccc(S(=O)(=O)NC(=O)c3cccnc3N3CC(C)CC3(C)C)n2)cc1 (stereo not shown) [Compound 2122, ethyl 4-[[6-[[2-(2,2,4-trimethylpyrrolidin-1-yl)pyridine-3-carbonyl]sulfamoyl]-2-pyridyl]amino]benzoate]",< 3000,–
"Cc1cc(C)c(CN2Cc3cccc(O)c3C2(C)C(=O)NS(=O)(=O)c2cccc(N)n2)c(C)c1 (stereo not shown) [Compound 394, N-[(6-amino-2-pyridyl)sulfonyl]-7-hydroxy-1-methyl-2-[(2,4,6-trimethylphenyl)methyl]isoindoline-1-carboxamide]",–,+++ (“+++” means <3 uM)
"COc1ccc(-c2cc(C(=O)NS(=O)(=O)c3ccccc3)n(Cc3c(C)cccc3C)n2)cc1 [Compound 49, N-(benzenesulfonyl)-2-[(2,6-dimethylphenyl)methyl]-5-(4-methoxyphenyl)pyrazole-3-carboxamide]",–,+++ (“+++” means <3 uM)
"Cc1cc(C)c(Cc2ccc(C(C)(C)C)nc2C(=O)NS(=O)(=O)c2cccc(N)c2)c(C)c1 [Compound 313, N-(3-aminophenyl)sulfonyl-6-tert-butyl-3-[(2,4,6-trimethylphenyl)methyl]pyridine-2-carboxamide]",–,+++ (“+++” means <3 uM)
"Cc1cc(C)c(Oc2nc(C(C)(C)C)ccc2C(=O)NS(=O)(=O)c2c[nH]ccc2=O)c(C)c1 [Compound 107, 6-tert-butyl-N-[(4-oxo-1H-pyridin-3-yl)sulfonyl]-2-(2,4,6-trimethylphenoxy)pyridine-3-carboxamide]",–,+++ (“+++” means <3 uM)
"C[C@@H]1CN(c2ncccc2C(=O)NS(=O)(=O)N2CCN(CCCc3ccc(Cl)cc3)CC2)C(C)(C)C1 [Compound 2141, N-[4-[3-(4-chlorophenyl)propyl]piperazin-1-yl]sulfonyl-2-[(4S)-2,2,4-trimethylpyrrolidin-1-yl]pyridine-3-carboxamide]",< 3000,–
"Cc1cc(C)c(CN2Cc3ccccc3C2C(=O)NS(=O)(=O)c2ccccc2N)c(C)c1 (stereo not shown) [Compound 230, N-(2-aminophenyl)sulfonyl-2-[(2,4,6-trimethylphenyl)methyl]isoindoline-1-carboxamide]",–,++ (“++” means between 3 uM and 10 uM)
"Cc1cc(C)c(Oc2nc(-c3cccc(CN4CCCCC4)c3)ccc2C(=O)NS(=O)(=O)c2cccc(N)n2)c(C)c1 [Compound 686, N-[(6-amino-2-pyridyl)sulfonyl]-6-[13-(1-piperidylmethyl)phenyl]-2-(2,4,6-trimethylphenoxy)pyridine-3-carboxamide]",–,+++ (“+++” means <3 uM)
"COc1cccc(-c2cc(C(=O)NS(=O)(=O)c3ccccc3)n(Cc3c(C)cccc3C)n2)c1 [Compound 176, N-(benzenesulfonyl)-2-[(2,6-dimethylphenyl)methyl]-5-(3-methoxyphenyl)pyrazole-3-carboxamide]",–,+++ (“+++” means <3 uM)
"CC(C)COc1cccc(-c2ccc(C(=O)NS(=O)(=O)c3cccc(N)n3)c(N3CCC(C)CC3)n2)c1 [Compound 777, N-[(6-amino-2-pyridyl)sulfonyl]-6-(3-isobutoxyphenyl)-2-(4-methyl-1-piperidyl)pyridine-3-carboxamide]",–,+++ (“+++” means <3 uM)
"COCC1CCCN(c2nc(-c3cc(F)cc(OCC(C)C)c3)ccc2C(=O)NS(=O)(=O)c2cccc(N)n2)C1 (stereo not shown) [Compound 419, N-[(6-amino-2-pyridyl)sulfonyl]-6-(3-fluoro-5-isobutoxy-phenyl)-2-[3-(methoxymethyl)-1-piperidyl]pyridine-3-carboxamide]",–,+++ (“+++” means <3 uM)
"CCOc1ccc(-c2cnc(N3CC(C)CC3(C)C)c(C(=O)NS(=O)(=O)c3cccc(N)n3)c2)cn1 (stereo not shown) [Compound 2384, N-[(6-amino-2-pyridyl)sulfonyl]-5-(6-ethoxy-3-pyridyl)-2-(2,2,4-trimethylpyrrolidin-1-yl)pyridine-3-carboxamide]",< 3000,–
"COc1cccc(Oc2nc(C(C)(C)C)ccc2C(=O)NS(=O)(=O)c2ccccc2)c1 [Compound 101, N-(benzenesulfonyl)-6-tert-butyl-2-(3-methoxyphenoxy)pyridine-3-carboxamide]",–,+++ (“+++” means <3 uM)

# More lines, now with the values ahead:
EC30 [1] [nM],EC30 [2],SMILES
< 3000,–,"C[C@@H]1CN(c2nc(-c3cccc4c3OCC4)ccc2C(=O)NS(=O)(=O)c2cccnc2N)C(C)(C)C1 [Compound 2163, N-[(2-amino-3-pyridyl)sulfonyl]-6-(2,3-dihydrobenzofuran-7-yl)-2-[(4S)-2,2,4-trimethylpyrrolidin-1-yl]pyridine-3-carboxamide]"
< 3000,–,"C[C@@H]1CN(c2nc(C3CCOC3)ccc2C(=O)NS(=O)(=O)c2ccccc2)C(C)(C)C1 (stereo partly drawn) [Compound 2277, N-(benzenesulfonyl)-6-tetrahydrofuran-3-yl-2-[(4S)-2,2,4-trimethylpyrrolidin-1-yl]pyridine-3-carboxamide]"
3000 to 10000,–,"Cc1cc(O)cc(-c2ccc(C(=O)NS(=O)(=O)c3cccc(N)n3)c(N3C[C@@H](C)CC3(C)C)n2)c1 [Compound 2232, N-[(6-amino-2-pyridyl)sulfonyl]-6-(3-hydroxy-5-methyl-phenyl)-2-[(4S)-2,2,4-trimethylpyrrolidin-1-yl]pyridine-3-carboxamide]"
–,+++ (“+++” means <3 uM),"CC(C)CNc1cc(-c2ccc(C(=O)NS(=O)(=O)c3cccc(N)n3)c(N3CC(C)CC3(C)C)n2)ccn1 (stereo not shown) [Compound 523, N-[(6-amino-2-pyridyl)sulfonyl]-6-[2-(isobutylamino)-4-pyridyl]-2-(2,2,4-trimethylpyrrolidin-1-yl)pyridine-3-carboxamide]"
< 3000,–,"C[C@@H]1CN(c2nc(-c3ccccc3C(F)(F)F)ccc2C(=O)NS(=O)(=O)c2cccnc2N)C(C)(C)C1 [Compound 2040, N-[(2-amino-3-pyridyl)sulfonyl]-6-[2-(trifluoromethyl)phenyl]-2-[(4S)-2,2,4-trimethylpyrrolidin-1-yl]pyridine-3-carboxamide]"
< 3000,–,"CC1CN(c2ncccc2C(=O)NS(=O)(=O)c2cccc(N3Cc4ccc(F)cc4C3)n2)C(C)(C)C1 (stereo not shown) [Compound 2580, N—[[6-(5-fluoroisoindolin-2-yl)-2-pyridyl]sulfonyl]-2-(2,2,4-trimethylpyrrolidin-1-yl)pyridine-3-carboxamide]"
–,+++ (“+++” means <3 uM),"CCCOc1cc(-c2ccc(C(=O)NS(=O)(=O)c3cccc(N)n3)c(N3CC(C)CC3(C)C)n2)ccc1Cl (stereo not shown) [Compound 644, N-[(6-amino-2-pyridyl)sulfonyl]-6-(4-chloro-3-propoxy-phenyl)-2-(2,2,4-trimethylpyrrolidin-1-yl)pyridine-3-carboxamide]"
3000 to 10000,–,"COc1cc(-c2ccc(C(=O)NS(=O)(=O)c3cccnc3N)c(N3C[C@@H](C)CC3(C)C)n2)ccc1O [Compound 2614, N-[(2-amino-3-pyridyl)sulfonyl]-6-(4-hydroxy-3-methoxy-phenyl)-2-[(4S)-2,2,4-trimethylpyrrolidin-1-yl]pyridine-3-carboxamide]"
< 3000,–,"CC1CN(c2ncccc2C(=O)NS(=O)(=O)c2cccc(Nc3cccc(N(C)C)c3)n2)C(C)(C)C1 (stereo not shown) [Compound 2517, N—[[6-[3-(dimethylamino)anilino]-2-pyridyl]sulfonyl]-2-(2,2,4-trimethylpyrrolidin-1-yl)pyridine-3-carboxamide]"
< 3000,–,"CC1CN(c2ncccc2C(=O)NS(=O)(=O)c2cccc(NCCOc3ccccc3)n2)C(C)(C)C1 (stereo not shown) [Compound 2206, N—[[6-(2-phenoxyethylamino)-2-pyridyl]sulfonyl]-2-(2,2,4-trimethylpyrrolidin-1-yl)pyridine-3-carboxamide]"
3000 to 10000,–,"CC1CN(c2ncccc2C(=O)NS(=O)(=O)c2cccc(Oc3ccc(N)cc3)n2)C(C)(C)C1 (stereo not shown) [Compound 2314, N—[[6-(4-aminophenoxy)-2-pyridyl]sulfonyl]-2-(2,2,4-trimethylpyrrolidin-1-yl)pyridine-3-carboxamide]"
